Consider eleven molecules from patent US11370743B2, “Prodrug derivatives of protein kinase C modulators” (priority 2017, dated 2022).

In one data set the test system is C57/bl6 mice. Description: In vivo C57/bl6 Mouse CD69 Stimulation Assay. As to conditions: for CD69 expression versus parent compound: 60 μg dose; for stimulation of CD69 in splenocytes: 24 h post-injection; for bolus toxicity: highest dosage. The procedure: In vivo C57/bl6 Mouse CD69 Stimulation Assay: C57/bl6 mice were obtained from the UCLA Department of Radiation Oncology. Prodrugs of the disclosure were administered intravenously via retro-orbital injection. At 24 h post-injection, mice were sacrificed and the spleens isolated. Spleens were disaggregated by forcing tissue through a steel mesh and then filtered through a 40 μm filter to produce a single-cell suspension. These cells were then stained for flow cytometry to analyze surface expression of relevant markers. Cells were first suspended in 50 μL of a 1:1 mix of 1× PBS and human AB serum (Sigma) and then stained with a combination of anti-mouse CD3-fluorescein isothiocyanate (eBioscience), CD69-phycoerythrin (eBioscience), and CD4-peridinin chlorophyll protein (eBioscience). Following antibody addition, the mixture was incubated at 4° C. for 15 min. The cells were then washed, resuspended in 1× PBS containing 2% paraformaldehyde, and stored at 4° C. Fixed cells were analyzed using an LSRFortessa (BD Biosciences). The resultant list mode files were processed using FlowJo software (version 7.6).

A further data set deals with T1, Novel PKCδ (Homo sapiens, UniProt Q05655).
T1 construct: a specific full-length PKC isoform was combined with Tris-HCl, KCl, CaCl2
As to the kind of experiment: PKC binding affinity, competitive radioligand assay against 3H-PDBu. The procedure: (§1) Testing of Compounds for PKC Binding Affinity: A heterogeneous competitive radioligand assay against ^3H-phorbol-12,13-dibutyrate (^3H-PDBu) was used to generate PKC binding constant (Ki) values. In a typical assay, a specific full-length PKC isoform was combined with Tris-HCl, KCl, CaCl2, bovine serum albumin, water, and phosphatidyl serine. Serial dilutions of the respective analog were added to the PKC mixture; in addition, a solution of a compound with known PKC binding affinity and a solution containing no sample were added for reference.
(§2) After addition of [^3H]PDBu, these samples were incubated, filtered through filters previously wetted with polyethyleneimine and the filters were washed with Tris buffer. The filters were then placed into scintillation vials which were then filled with Bio-Safe scintillation fluid and were measured for radioactivity using a Beckman LS 6000SC scintillation counter. Counts per minute (cpm) were averaged for each triplicate dilution. The data was then plotted (cpm vs. log(concentration)) using Prism® by GraphPad Software and an IC50 was determined using that program's built-in one-site competition least squares regression function. Ki values were calculated by the equation: Ki=IC50/(1+[^3H-PDBu])/KD of ^3H-PDBu).

A short description of data set [1]: Hydrolytic Stability Assay. To be noted: buffer, HEPES buffered saline, pH 7.4, 10% DMSO, 37° C.; for half-life at 400 μM: read-out: Hydrolytic stability (t1/2); for half-life: read-out: Hydrolytic stability (t1/2) (converted). It is filed as physicochemical. The procedure:
(§3) Hydrolytic Stability Assay: A solution of 400 μM of parent compound or prodrug derivative with 2,4,6-trimethylphenol (800 μM, 107 μg) in HEPES buffered saline, pH 7.4, with 10% DMSO (total volume 1000 μL) was incubated at 37° C. At appropriate time points, 100 μL was removed, flash frozen, and lyophilized. The lyophilized material was then diluted with 100 μL acetonitrile, filtered, and analyzed by analytical HPLC. The degree of degradation was calculated relative to the area under the curve of the compound of interest compared to the internal standard, 2,4,6-trimethylphenol, as shown in Table 1. Porcine Liver Esterase Assay: A solution of 400 μM of parent compound or prodrug derivative with 2,4,6-trimethylphenol (800 μM, 160 μg) and 60 units of porcine liver esterase in HEPES buffered saline, pH 7.4, with 10% DMSO (total volume 1500 μL) was incubated at 37° C. At appropriate time points, 150 μL was removed, flash frozen, and centrifuged at 10,000 rpm. 140 μL of the supernatant was removed and lyophilized. The lyophilized material was then diluted with 100 μL acetonitrile, filtered, and analyzed by analytical HPLC. The degree of esterase cleavage was calculated relative to the area under the curve of the compound of interest compared to the internal standard, 2,4,6-trimethylphenol.

In the next data set the test system is porcine liver esterase. Description: Porcine Liver Esterase Assay. The format is in vitro ADME. To be noted: pig; 60 units of porcine liver esterase, HEPES buffered saline, pH 7.4, 10% DMSO, 37° C.; read-out: Esterase stability (t1/2)* (converted). The procedure: as §3
For another data set, the target named is T2, Conventional PKCβI (Homo sapiens, UniProt P05771).
T2 construct: a specific full-length PKC isoform was combined with Tris-HCl, KCl, CaCl2
As to the kind of experiment: PKC binding affinity, competitive radioligand assay against 3H-PDBu. The procedure:
as §1, §2

Data set [2] has as its system T-lymphoblastoid CEM-SS and C-8166 cells. As to conditions: CEM-SS and C-8166 cell lines; cited from earlier work.
The target of another data set is T3, PKC.
T3 construct: rows headed: KD of 3H-PDBu
Description: Saturation binding of 3H-PDBu. As to conditions: batch-to-batch variability.

Setting [3] is: intravenous retro-orbital injection.
Setting [4] is: vs 3H-PDBu, read-out: PKC binding affinity, Ki, Novel PKCδ.

Read-outs that look alike come from different tables or passages of the source.

T2 sequence (P05771 whole entry, canonical isoform): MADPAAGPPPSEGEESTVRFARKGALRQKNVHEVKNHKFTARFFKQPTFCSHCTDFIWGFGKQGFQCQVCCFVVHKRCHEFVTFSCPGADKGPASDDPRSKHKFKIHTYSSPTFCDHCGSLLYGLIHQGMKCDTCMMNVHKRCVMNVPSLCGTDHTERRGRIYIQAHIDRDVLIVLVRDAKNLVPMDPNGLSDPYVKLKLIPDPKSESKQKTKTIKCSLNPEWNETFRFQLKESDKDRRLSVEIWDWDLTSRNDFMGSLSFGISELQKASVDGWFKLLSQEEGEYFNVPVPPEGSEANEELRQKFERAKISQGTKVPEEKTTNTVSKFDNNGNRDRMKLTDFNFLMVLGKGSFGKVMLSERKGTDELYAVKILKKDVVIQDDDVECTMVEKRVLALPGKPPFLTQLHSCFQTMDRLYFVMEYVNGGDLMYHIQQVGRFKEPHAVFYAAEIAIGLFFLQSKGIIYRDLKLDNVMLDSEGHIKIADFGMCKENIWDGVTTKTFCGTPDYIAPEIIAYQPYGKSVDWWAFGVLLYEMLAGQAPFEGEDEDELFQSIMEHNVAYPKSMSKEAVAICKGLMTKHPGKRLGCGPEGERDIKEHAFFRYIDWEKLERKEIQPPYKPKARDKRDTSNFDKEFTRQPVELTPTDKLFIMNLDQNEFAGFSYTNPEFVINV
T1 sequence (Q05655 whole entry, canonical isoform): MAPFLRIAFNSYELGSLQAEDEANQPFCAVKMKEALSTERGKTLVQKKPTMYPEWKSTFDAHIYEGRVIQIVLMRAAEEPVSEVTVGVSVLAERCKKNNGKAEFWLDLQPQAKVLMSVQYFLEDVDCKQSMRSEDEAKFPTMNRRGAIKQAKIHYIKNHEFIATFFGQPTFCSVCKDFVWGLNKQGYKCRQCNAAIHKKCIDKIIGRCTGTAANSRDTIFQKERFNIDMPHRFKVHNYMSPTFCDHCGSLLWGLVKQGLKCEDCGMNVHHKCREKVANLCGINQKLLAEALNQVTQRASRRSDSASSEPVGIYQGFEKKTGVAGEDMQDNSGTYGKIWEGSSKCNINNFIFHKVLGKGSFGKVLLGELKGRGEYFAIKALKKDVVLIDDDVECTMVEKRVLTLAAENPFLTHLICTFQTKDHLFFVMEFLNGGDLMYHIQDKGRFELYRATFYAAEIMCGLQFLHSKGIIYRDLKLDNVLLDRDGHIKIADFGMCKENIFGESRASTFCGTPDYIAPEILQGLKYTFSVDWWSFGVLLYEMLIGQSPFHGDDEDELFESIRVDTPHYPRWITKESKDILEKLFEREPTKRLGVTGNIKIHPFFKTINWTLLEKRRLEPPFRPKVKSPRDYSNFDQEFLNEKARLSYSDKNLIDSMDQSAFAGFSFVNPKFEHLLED

`CC1=C[C@H]2[C@@]3(O)[C@H](C)C[C@]4(OC(=O)CC56CC7CC(CC(C7)C5)C6)[C@H]([C@@H]3C=C(CO)C[C@]2(O)C1=O)C4(C)C` [Compound 3, adamantyl prostratin]: the survival of mice result with C57/bl6 mice (setting [3]) was “one mouse casualty at 60 pg and no survival beyond that dose”. Moreover, in the data set on C57/bl6 mice (intravenous retro-orbital injection, 24 h), the “potency compared with prostratin” value is on record as “higher potency than prostratin”.
`CC(=O)OCC1=C[C@H]2[C@@H]3C(C)(C)[C@]3(OC(=O)CC34CC5CC(CC(C5)C3)C4)C[C@@H](C)[C@]2(O)[C@@H]2C=C(C)C(=O)[C@@]2(O)C1` [Compound 4a]: affinity on Novel PKCδ was put at a Ki of 9400 nM. Besides, the half-life at 400 μM in data set [1] is above 168 h. For the same molecule, in the data set on porcine liver esterase, the half-life at 400 μM is 27 ± 3 h. Besides, in the data set on C57/bl6 mice, the “CD69 expression versus parent compound” value is “more moderate levels of activation”, the “stimulation of CD69 in splenocytes” value is “strong stimulation of CD69 in splenocytes” and the bolus toxicity result was “no bolus toxicity on mice even at the highest dosage”. Besides, in the data set on C57/bl6 mice (setting [3]), the survival of mice entry is “survived”.
Turning to `CCCCCC(=O)OCC1=C[C@H]2[C@@H]3C(C)(C)[C@]3(OC(=O)CC34CC5CC(CC(C5)C3)C4)C[C@@H](C)[C@]2(O)[C@@H]2C=C(C)C(=O)[C@@]2(O)C1` [Compound 4b], the Ki at Conventional PKCβI and at Novel PKCδ was above 2500 nM in each case. The values for the half-life at 400 μM (in data set [1]; in the data set with porcine liver esterase) were above 1780 h and 2.4 ± 0.5 h, respectively.
On Novel PKCδ, `CCCCCCCCCC(=O)OCC1=C[C@H]2[C@@H]3C(C)(C)[C@]3(OC(=O)CC34CC5CC(CC(C5)C3)C4)C[C@@H](C)[C@]2(O)[C@@H]2C=C(C)C(=O)[C@@]2(O)C1` [Compound 4c] yielded a Ki of 9000 nM. For the same molecule, the half-life at 400 μM in data set [1] was above 168 h. The half-life at 400 μM in the data set on porcine liver esterase was 19 ± 2 h. For the same molecule, in the data set with C57/bl6 mice, the “CD69 expression versus parent compound” value was “comparable”, the “stimulation of CD69 in splenocytes” value is on record as “strong stimulation of CD69 in splenocytes” and the bolus toxicity entry is reported as “no bolus toxicity on mice even at the highest dosage”. Besides, in the data set on C57/bl6 mice (setting [3]), the survival of mice entry was “survived”.
`CC1=C[C@H]2[C@@]3(O)[C@H](C)C[C@]4(OC(=O)CC56CC7CC(CC(C7)C5)C6)[C@H]([C@@H]3C=C(COC(=O)c3ccccc3)C[C@]2(O)C1=O)C4(C)C` [Compound 4d]: the Ki was above 500 nM on Conventional PKCβI and above 2500 nM at Novel PKCδ. The half-life at 400 μM in data set [1] is above 168 h; with porcine liver esterase, 32 ± 9 h.
With `CCOC(=O)OCC1=C[C@H]2[C@@H]3C(C)(C)[C@]3(OC(=O)CC34CC5CC(CC(C5)C3)C4)C[C@@H](C)[C@]2(O)[C@@H]2C=C(C)C(=O)[C@@]2(O)C1` [Compound 4e], affinity at Novel PKCδ was put at a Ki of 380 nM. Further, the half-life at 400 μM was above 168 h in data set [1] and 4.8 ± 0.6 h in the data set with porcine liver esterase.
Taken in the same sequence, the figures for `CCCCCCCCNC(=O)OCC1=C[C@H]2[C@@H]3C(C)(C)[C@]3(OC(=O)CC34CC5CC(CC(C5)C3)C4)C[C@@H](C)[C@]2(O)[C@@H]2C=C(C)C(=O)[C@@]2(O)C1` [Compound 4f] were 2900 nM, above 168 h and 71 ± 13 h.
`CC1=C[C@]23C(=O)[C@@H](C=C(CO)[C@@H](O)[C@]2(O)[C@H]1OC(=O)c1ccc(Br)cc1C)[C@H]1[C@@H](C[C@H]3C)C1(C)C` [Compound 6, o-methyl-p-bromo-benzoate ingenol ester]: the Ki came out at 0.85 nM on Conventional PKCβI (vs 3H-PDBu, read-out: PKC binding affinity, Ki, Conventional PKCβI) and 1.1 nM on Novel PKCδ (setting [4]). The half-life in data set [1] was 18 h; in the data set with porcine liver esterase it was 1 h.
For `CCCCCCCCCC(=O)OCC1=C[C@@H]2C(=O)[C@]3(C=C(C)[C@H](OC(=O)c4ccc(Br)cc4C)[C@@]3(O)[C@@H]1O)[C@H](C)C[C@@H]1[C@H]2C1(C)C` [Compound 7], the Ki on Novel PKCδ (setting [4]) was 11000 nM. The half-life (in data set [1]; in the data set with porcine liver esterase) was 2 h in each case.
`CC(=O)O[C@@]12C[C@@H](C)[C@@]3(O)[C@@H](C=C(CO)C[C@]4(O)C(=O)C(C)=C[C@@H]34)[C@@H]1C2(C)C` [prostratin]: in data set [2], the “concentration restoring cell viability to the level of uninfected controls” value was “approximately 1 μM” and the “no sign of cytotoxicity up to” value is given as “about 25 μM”.
At PKC, ^3H-phorbol-12,13-dibutyrate [^3H-PDBu] showed a Kd of 1.55 to 4.4 nM.

The term Ki denotes a dissociation constant, usually derived from enzyme kinetics or from competition with a known ligand. As usually defined, the Kd is the equilibrium constant for the complex coming apart.
